Consider 14 molecules from US12084434B2 (Scorpion Therapeutics, Inc., priority 2021, dated 2024).

A word on the IC50: it is the concentration at which inhibition is half-maximal. The term pKd denotes −log10 of the Kd, conventionally taken in molar units. Usually pIC50 stands for the IC50 on a negative log10 scale, so that one unit is a factor of ten.

pIC50, pKd: −log10 of the molar value. Where two headings read alike, the source gives them in different places. Some results are limits rather than exact numbers.

Experiment [1] relates to T47D pAKT (S473), PI3Kα H1047R mutation present. Description: HTRF pAKT-T47D.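 As to all read-outs here: assay medium was RPMI with 10% FBS and 0.2 units/ml bovine insulin, without phenol red.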 The following applies: for IC50: Homo sapiens, T47D, 1 h, read-out: T47D pAKT IC50 (nM), T47D.1 cells, pAKT (S473) HTRF, 1 hour; for pIC50: read-out: T47D pAKT IC50, T47D.1 cells, pAKT (S473) HTRF, 1 hour. For orientation: In TR-FRET formats the signal depends on donor and acceptor labels being close together.
Procedure: Homogenous Time-Resolved Fluorescence (HTRF)—pAKT-T47D
Compounds were assayed using homogeneous time-resolved fluorescence (HTRF).
Gibco RPMI 1640 Medium, no phenol red; Gibco RPMI 1640 Medium; Gibco Trypsin-EDTA (0.5%), no phenol red; Gibco DPBS; Trypan blue solution 0.4% (Corning); Avantor Seradigm Premium Grade Fetal Bovine Serum (FBS); Greiner 784080-384 well TC treated white plates; pAKT (Ser473) HTRF; Gibco Insulin, human recombinant, zinc solution; Gibco Recovery Cell Culture Freezing Medium; Countess II FL Automated Cell Counter (ThermoFisher); Countess II Slides (ThermoFisher); Microscope; and PHERAstar FSX Microplate Reader (BMG LABTECH, Inc.).
The scinamic cell line ID was T47D.1, the HTRF detection was pAKT (S473), a PI3Kα H1047R mutation was present, the seeding density was 5000, the timepoint was 1 hour, and the medium used was RPMI+10% FBS (no phenol red)+0.2 units/ml bovine insulin.
• The cell density was not permitted to reach 100% confluence. The cells were split 1:5 when they reached ˜80% confluence. • Cells were split twice a week (Mon and Fri). • Cells over passage 18 were not used (˜2 months of maintenance). • Antibiotics were not used for tissue culture maintenance or assays. […] Protocol Day1
The procedure was as follows: • 1. Prepared ARP: • a. Stamped 12.5 nL from 10 μmM source plate to destination plate using Echo. Sealed plate immediately and froze at −20° C. if it was not used on the same day. • b. If a frozen ARP was used, the plate was thawed and spun at 1000 rpm×1 min. • 2. Preparation of cells (adherent): • a. Aspirated media from cells. Washed cells with sterile 1XPBS. Aspirated PBS and added appropriate amount of Trypsin. • b. Once cells were fully trypsinized, added appropriate media to resuspend cells. Transferred cells to a 15 mL or 50 mL conical tube. • c. Counted cells on the Countess II Cell Counter. • 3. Plating of cells: • a. Prepared cells at appropriate plating density. Dispensed 12 μL of diluted cells per well of a Greiner 784080-384 well TC treated white plate using a Multidrop Combi to columns 1-23. Added 12 uL of appropriate phenol free media only to column 24. • b. Placed plates in 37° C. tissue culture incubator for appropriate treatment time (refer to “Assay” table). • 4. Prepared HTRF Lysis Buffer • a. Calculate the amount of HTRF lysis buffer master mix needed to perform the desired experiments plus any extra dead volume required for dispensing (4 μL required per well). […] Add 4 uL Lysis buffer master mix to all wells with sample or DMSO. Centrifuge the plates for 1 minute at 1000 rpm. • c. Incubate at room temperature for 30 minutes. • 5. Prepared HTRF Antibody • a.

The target of experiment [2] is T1, PI3Kα H1047R protein (p110-α H1047R complexed with truncated p85-α) (Homo sapiens, UniProt P42336, H1047R).
T1 construct: The protein contained a full-length p110-α subunit harboring the H1047R mutation
T1 sequence (P42336 whole entry H1047R, the tested form may be a part): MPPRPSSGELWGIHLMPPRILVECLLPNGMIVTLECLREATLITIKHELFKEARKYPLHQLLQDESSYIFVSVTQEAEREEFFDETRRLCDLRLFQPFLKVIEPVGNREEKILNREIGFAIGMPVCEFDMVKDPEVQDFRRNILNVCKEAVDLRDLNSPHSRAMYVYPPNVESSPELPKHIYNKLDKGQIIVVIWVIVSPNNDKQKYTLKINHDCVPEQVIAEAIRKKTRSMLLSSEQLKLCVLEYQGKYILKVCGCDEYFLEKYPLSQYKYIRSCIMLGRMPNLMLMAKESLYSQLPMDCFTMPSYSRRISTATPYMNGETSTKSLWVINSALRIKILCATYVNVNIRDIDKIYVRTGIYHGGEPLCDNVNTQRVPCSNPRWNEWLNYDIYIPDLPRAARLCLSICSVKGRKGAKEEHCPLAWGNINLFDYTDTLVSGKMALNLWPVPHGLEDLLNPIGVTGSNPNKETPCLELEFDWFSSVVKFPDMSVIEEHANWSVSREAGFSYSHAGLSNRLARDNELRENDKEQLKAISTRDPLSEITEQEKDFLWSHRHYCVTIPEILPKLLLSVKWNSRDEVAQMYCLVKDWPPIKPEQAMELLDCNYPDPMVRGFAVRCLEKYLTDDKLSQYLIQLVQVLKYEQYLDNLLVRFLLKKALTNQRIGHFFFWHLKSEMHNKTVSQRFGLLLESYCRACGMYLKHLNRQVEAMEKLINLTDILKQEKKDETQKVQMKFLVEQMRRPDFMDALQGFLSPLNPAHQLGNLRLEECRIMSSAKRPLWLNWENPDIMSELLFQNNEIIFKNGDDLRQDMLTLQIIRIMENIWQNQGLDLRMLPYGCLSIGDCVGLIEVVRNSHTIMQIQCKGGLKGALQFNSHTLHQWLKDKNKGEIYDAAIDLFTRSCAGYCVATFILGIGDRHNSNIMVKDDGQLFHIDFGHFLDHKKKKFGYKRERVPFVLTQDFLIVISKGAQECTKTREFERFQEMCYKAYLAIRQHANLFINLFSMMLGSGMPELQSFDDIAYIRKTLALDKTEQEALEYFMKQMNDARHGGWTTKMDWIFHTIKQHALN
T1 sequence (P27986 322-694 partner limits assumed): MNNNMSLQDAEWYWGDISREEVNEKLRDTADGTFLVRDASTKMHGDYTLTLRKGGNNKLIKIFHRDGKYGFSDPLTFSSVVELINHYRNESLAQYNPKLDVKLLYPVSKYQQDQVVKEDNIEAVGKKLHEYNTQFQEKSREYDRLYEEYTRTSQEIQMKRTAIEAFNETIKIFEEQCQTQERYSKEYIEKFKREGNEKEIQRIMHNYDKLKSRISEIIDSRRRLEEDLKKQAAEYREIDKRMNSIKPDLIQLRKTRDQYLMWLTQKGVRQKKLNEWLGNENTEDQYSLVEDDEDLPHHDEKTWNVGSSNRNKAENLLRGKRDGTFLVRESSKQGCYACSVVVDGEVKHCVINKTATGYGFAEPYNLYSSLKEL
The experiment can be described thus: Surface Plasmon Resonance (SPR) binding, wortmannin-blocked protein. The note with it: Biacore 8K, ATP site blocked with 1 μM wortmannin, 25° C. Here is the method:
Surface Plasmon Resonance (SPR)
SPR experiments were performed on a Biacore 8K instrument. A biotinylated recombinant PI3Kα H1047R protein was used in this study. The protein contained a full-length p110-α subunit harboring the H1047R mutation with an N-terminal AviTag, complexed with a truncated p85-α subunit (amino acid residues 322-694). The protein was first incubated with 1 μM wortmannin for 30 min at RT to covalently block the ATP binding site, then immobilized onto a streptavidin sensor chip by flowing the protein through the sensor chip at typically 20 μg/mL concentration and 2 μL/min flow rate for 1200 seconds. Compound binding affinities were measured in the multi-cycle kinetics mode, at 90 μL/min flow rate with 90 seconds association time and 240 seconds dissociation time. The running buffer contained 50 mM Tris, pH 7.5, 150 mM NaCl, 0.01% Brij35, 1 mM DTT, 1 mM MgCl2, 0.05% Tween-20 and 2% DMSO. Temperature was maintained at 25° C. during experiments.
(SPR reads the build-up and loss of mass on a sensor chip optically.)

Consider `Cc1c([C@@H](NC(=O)N[C@H]2CCCS(=O)(=O)C2)C(C)C)oc2ccc(F)cc12` [Compound 44, 1-((S)-1,1-dioxidotetrahydro-2H-thiopyran-3-yl)-3-((S)-1-(5-fluoro-3-methylbenzofuran-2-yl)-2-methylpropyl)urea], for which, in experiment [1], the IC50 was 1000 to 5000 nM. Besides, the pKd in experiment [2] was 6.30 to 6.60.
Turning to `Cc1c([C@@H](NC(=O)Nc2cncc(C#N)c2)C(C)C)oc2ccc(F)cc12` [Compound 35, (S)-1-(5-cyanopyridin-3-yl)-3-(1-(5-fluoro-3-methylbenzofuran-2-yl)-2-methylpropyl)urea], in experiment [1], the IC50 was 1000 to 5000 nM. The pKd in experiment [2] was 6.30 to 6.60.
Turning to `Cc1c([C@@H](NC(=O)Nc2cccc(S(C)(=N)=O)c2)C(C)C)oc2ccc(F)cc12` (single isomer, unassigned) [Compound 30], in experiment [1], the pIC50 is 5.30 to 6.00. Besides, the pKd in experiment [2] was 6.60 to 7.00.
For the molecule `Cc1c([C@@H](C)NC(=O)Nc2ccc(S(N)(=O)=O)cc2)oc2ccc(F)cc12` [Compound 12, (R)-4-(3-(1-(5-fluoro-3-methylbenzofuran-2-yl)ethyl)ureido) benzenesulfonamide], the pIC50 in experiment [1] was 5.30 to 6.00. The pKd in experiment [2] is no more than 6.30.
Regarding `Cc1c([C@@H](NC(=O)Nc2cncc(S(C)(=O)=O)c2)C(C)C)oc2ccc(F)cc12` [Compound 27, (S)-1-(1-(5-fluoro-3-methylbenzofuran-2-yl)-2-methylpropyl)-3-(5-(methylsulfonyl)pyridin-3-yl)urea], the IC50 in experiment [1] was less than 1000 nM. Besides, the pKd in experiment [2] is greater than 7.00.
In the case of `Cc1c([C@@H](NC(=O)Nc2cncc(C(=O)N3CCNCC3)c2)C(C)C)oc2ccc(F)cc12` [Compound 61, (S)-1-(1-(5-fluoro-3-methylbenzofuran-2-yl)-2-methylpropyl)-3-(5-(piperazine-1-carbonyl)pyridin-3-yl)urea], in experiment [1], the IC50 lay within 1000 to 5000 nM. Moreover, in experiment [2], the pKd is 6.60 to 7.00.
In the case of `CC(C)C(NC(=O)Nc1cccc(C(N)=O)c1)c1cc2cc(F)ccc2o1` (racemic) [Compound 50, 3-(3-(1-(5-fluorobenzofuran-2-yl)-2-methylpropyl)ureido)benzamide], the IC50 in experiment [1] is greater than 5000 nM. Moreover, the pKd in experiment [2] is 6.60 to 7.00.
In the same order, the values of `Cc1c([C@@H](NC(=O)Nc2cnc(N3CC(F)C3)nc2)C(C)C)oc2ccc(F)cc12` [Compound 73, (S)-1-(1-(5-fluoro-3-methylbenzofuran-2-yl)-2-methylpropyl)-3-(2-(3-fluoroazetidin-1-yl)pyrimidin-5-yl)urea] are less than 1000 nM and greater than 7.00.
Turning to `Cc1c([C@@H](NC(=O)Nc2cncc(C(=O)O)c2)C(C)C)oc2ccc(F)cc12` [Compound 62, (S)-5-(3-(1-(5-fluoro-3-methylbenzofuran-2-yl)-2-methylpropyl)ureido)nicotinic acid], the IC50 in experiment [1] is greater than 5000 nM. For the same molecule, the pKd in experiment [2] is greater than 7.00.
As for `Cc1c([C@@H](NC(=O)Nc2cncc(C(N)=O)c2)C(C)C)oc2ccc(F)cc12` [Compound 24, (S)-5-(3-(1-(5-fluoro-3-methylbenzofuran-2-yl)-2-methylpropyl)ureido) nicotinamide], in experiment [1], the IC50 is less than 1000 nM. The pKd in experiment [2] is greater than 7.00.
For `Cc1c([C@@H](NC(=O)Nc2ccnc(C(N)=O)c2)C(C)C)oc2ccc(F)cc12` [Compound 40, (S)-4-(3-(1-(5-fluoro-3-methylbenzofuran-2-yl)-2-methylpropyl)ureido)picolinamide] the same measures were 1000 to 5000 nM and 6.30 to 6.60.
`Cc1c([C@@H](NC(=O)N[C@@H]2CCCS(=O)(=O)C2)C(C)C)oc2ccc(F)cc12` [Compound 43, 1-((R)-1,1-dioxidotetrahydro-2H-thiopyran-3-yl)-3-((S)-1-(5-fluoro-3-methylbenzofuran-2-yl)-2-methylpropyl)urea]: the IC50 in experiment [1] was 1000 to 5000 nM. Besides, the pKd in experiment [2] is 6.60 to 7.00.
In the same order, the values of `Cc1c([C@@H](NC(=O)Nc2cnc(N)nc2)C(C)C)oc2ccc(F)cc12` [Compound 39, (S)-1-(2-aminopyrimidin-5-yl)-3-(1-(5-fluoro-3-methylbenzofuran-2-yl)-2-methylpropyl)urea] are less than 1000 nM and greater than 7.00.
Take `Cc1c([C@@H](NC(=O)Nc2cccnc2)C(C)C)oc2ccc(F)cc12` [Compound 1, (S)-1-(1-(5-fluoro-3-methylbenzofuran-2-yl)-2-methylpropyl)-3-(pyridin-3-yl)urea]: the IC50 in experiment [1] lay in the range of 1000 to 5000 nM. In addition, the pKd in experiment [2] was 6.30 to 6.60.
